We go through 23 compounds from patent US20150352108A1, “AMINO-PYRIMIDINE COMPOUNDS AS INHIBITORS OF TBK1 AND/OR IKK EPSILON” (Alzheimer's Institute of America, priority 2009, published 2015).

Molecules are shown by their SMILES. Read-outs that look alike come from different tables or passages of the source.

One experiment concerns the target T1, IKKε (Homo sapiens, UniProt Q14164).
T1 construct: His-tag; made in house; host or cells: Sf9 insect cells
T1 sequence (Q14164 1-716): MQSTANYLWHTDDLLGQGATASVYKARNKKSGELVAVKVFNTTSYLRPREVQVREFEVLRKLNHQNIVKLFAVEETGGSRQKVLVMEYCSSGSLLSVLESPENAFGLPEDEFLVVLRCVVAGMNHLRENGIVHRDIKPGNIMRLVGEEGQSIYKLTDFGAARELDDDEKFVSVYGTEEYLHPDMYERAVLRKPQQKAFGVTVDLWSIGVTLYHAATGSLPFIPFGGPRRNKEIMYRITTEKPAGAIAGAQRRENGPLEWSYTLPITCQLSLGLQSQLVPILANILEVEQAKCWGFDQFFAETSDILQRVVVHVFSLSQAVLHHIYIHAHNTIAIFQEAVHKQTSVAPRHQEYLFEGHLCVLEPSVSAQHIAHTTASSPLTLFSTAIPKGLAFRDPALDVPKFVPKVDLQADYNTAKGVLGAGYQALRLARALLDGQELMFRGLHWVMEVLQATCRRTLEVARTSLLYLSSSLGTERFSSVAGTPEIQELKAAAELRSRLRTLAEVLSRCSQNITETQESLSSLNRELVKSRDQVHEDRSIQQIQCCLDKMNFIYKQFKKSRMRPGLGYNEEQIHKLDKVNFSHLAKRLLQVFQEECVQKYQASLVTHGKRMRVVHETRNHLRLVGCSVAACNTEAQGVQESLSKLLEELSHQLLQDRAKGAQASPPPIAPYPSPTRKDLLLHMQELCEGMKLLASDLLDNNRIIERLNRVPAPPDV
In words: In-vitro IKKε kinase assay ([γ33]ATP filter-plate). The format is biochemical. In a few lines:
(§1)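 Phosphorylation of casein or myelin basic protein was counted by P-81 filter capture after 30-45 min reactions stopped with phosphoric acid, with counts normalized to DMSO after background subtraction. ATP was twice Km: 60 μM for TBK1 and 32 μM for IKKε, plus [γ33]ATP. Sf9-expressed His-tag enzymes were used at normal/sensitized levels of 0.1/0.02 μg/ml (TBK1) and 0.1/0.015 μg/ml (IKKε).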

In a further experiment the target is T2, TBK1 (Homo sapiens, UniProt Q9UHD2).
T2 construct: His-tag; made in house; host or cells: Sf9 insect cells
T2 sequence (Q9UHD2 1-729): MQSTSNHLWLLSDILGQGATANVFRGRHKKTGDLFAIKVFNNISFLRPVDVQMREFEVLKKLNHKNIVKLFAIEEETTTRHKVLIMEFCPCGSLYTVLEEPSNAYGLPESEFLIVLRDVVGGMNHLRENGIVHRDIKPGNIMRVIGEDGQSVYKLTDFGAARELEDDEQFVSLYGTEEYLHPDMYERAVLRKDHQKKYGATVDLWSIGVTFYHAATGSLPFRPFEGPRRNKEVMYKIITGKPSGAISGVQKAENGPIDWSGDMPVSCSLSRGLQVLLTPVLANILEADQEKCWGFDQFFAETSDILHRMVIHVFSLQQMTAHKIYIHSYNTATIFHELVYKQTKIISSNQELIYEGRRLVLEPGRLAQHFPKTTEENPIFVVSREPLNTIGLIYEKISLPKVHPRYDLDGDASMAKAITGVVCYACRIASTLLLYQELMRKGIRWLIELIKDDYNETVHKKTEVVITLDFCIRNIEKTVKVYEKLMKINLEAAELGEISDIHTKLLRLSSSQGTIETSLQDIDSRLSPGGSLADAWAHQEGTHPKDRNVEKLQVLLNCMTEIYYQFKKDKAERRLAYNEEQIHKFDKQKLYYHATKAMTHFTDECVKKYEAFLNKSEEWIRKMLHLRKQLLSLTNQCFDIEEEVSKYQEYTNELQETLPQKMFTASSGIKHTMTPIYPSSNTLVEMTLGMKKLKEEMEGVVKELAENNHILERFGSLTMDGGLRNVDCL
In words: In-vitro TBK1 kinase assay ([γ33]ATP filter-plate). The format is biochemical. The method, boiled down:
as §1

[1] abbreviates: text bins, read-out: IC50 for inhibition of the kinase activity of IKKε.
The mark [2] stands for this setting: text bins, read-out: IC50 for inhibition of the kinase activity of TBK1.

Regarding `N#Cc1cc(-c2ccnc(Nc3cccc(CNCCN4CCOCC4)c3)n2)ccc1OC1CCOCC1` [compound 569, 5-(2-{[3-({[2-(Morpholin-4-yl)ethyl]amino}methyl)phenyl]amino}pyrimidin-4-yl)-2-(tetrahydro-2H-pyran-4-yloxy)benzonitrile], the concentration for half-maximal inhibition (IC50) was 0.005 to 0.05 µM on IKKε (setting [1]) and 0.01 to 0.1 µM at TBK1 (setting [2]).

On to `COc1cc(NC(=O)N2CCCC(O)C2)cc(Nc2nccc(-c3ccc(OC)c(C#N)c3)n2)c1` (centres unmarked) [compound 353, N-(3-{[4-(3-Cyano-4-methoxyphenyl)pyrimidin-2-yl]amino}-5-methoxyphenyl)-3-hydroxypiperidine-1-carboxamide], for which the IC50 was in the range of 0.005 to 0.05 µM at IKKε (setting [1]) and 0.01 to 0.1 µM at TBK1 (setting [2]).

As to `N#Cc1cc(-c2ccnc(Nc3ccc(CS(=O)(=O)NCCO)cc3)n2)ccc1NC(=O)C1CC1` [compound 566, N-(2-Cyano-4-{2-[(4-{[(2-hydroxyethyl)sulfamoyl]methyl}phenyl)amino]pyrimidin-4-yl}phenyl) cyclopropane-carboxamide], the half-maximal inhibitory concentration (IC50) at IKKε (setting [1]) was under 0.005 µM; at TBK1 (setting [2]), under 0.01 µM.

On to `CC(C)Nc1ccc(-c2ccnc(Nc3ccc(N4CCOCC4)cc3)n2)cc1C#N` [Example 211, 5-(2-{[4-(Morpholin-4-yl)phenyl]amino}pyrimidin-4-yl)-2-(propan-2-ylamino)benzonitrile], for which the IC50 on IKKε (setting [1]) was under 0.005 µM; at TBK1 (setting [2]), under 0.01 µM.

With `N#Cc1cc(-c2ccnc(Nc3ccc(N4CCOCC4)cc3)n2)ccc1OCC1CCN(C(=O)CO)CC1` [Example 233, 2-{[1-(hydroxyacetyl)piperidin-4-yl]methoxy}-5-(2-{[4-(morpholin-4-yl)phenyl]amino}pyrimidin-4-yl)benzonitrile], the concentration for half-maximal inhibition (IC50) at IKKε (setting [1]) is 0.005 to 0.05 µM; at TBK1 (setting [2]) it was under 0.01 µM.

Regarding `N#Cc1cc(-c2ccnc(Nc3ccc(NC(=O)Nc4cccnc4)cc3)n2)ccc1OC1CCOCC1` [Example 14, 1-[4-({4-[3-cyano-4-(tetrahydro-2H-pyran-4-yloxy)phenyl]pyrimidin-2-yl}amino)phenyl]-3-pyridin-3-ylurea], the IC50 on IKKε (setting [1]) was under 0.005 µM; at TBK1 (setting [2]) it was under 0.01 µM.

For the compound `COc1ccc(-c2ccnc(Nc3ccc(N(C)CC(=O)N(C)C)c(OC)c3)n2)cc1C#N` [Example 68, N~2~-(4-{[4-(3-Cyano-4-methoxyphenyl)pyrimidin-2-yl]amino}-2-methoxyphenyl)-N,N,N~2~- trimethylglycinamide], the half-inhibitory concentration (IC50) at IKKε (setting [1]) was under 0.005 µM; at TBK1 (setting [2]), under 0.01 µM.

As for `COc1ccc(-c2ccnc(Nc3ccc(N4CCN(C)CC4)cc3)n2)cc1C#N` [compound 297, 2-Methoxy-5-(2-{[4-(4-methylpiperazin-1-yl)phenyl]amino}pyrimidin-4-yl)benzonitrile], the half-inhibitory concentration (IC50) on IKKε (setting [1]) is 0.005 to 0.05 µM; at TBK1 (setting [2]), under 0.01 µM.

`CS(=O)(=O)N1CCC(COc2ccc(-c3ccnc(Nc4ccc(N5CCOCC5)cc4)n3)cc2C#N)CC1` [Example 76, 2-{[1-(methylsulfonyl)piperidin-4-yl]methoxy}-5-(2-{[4-(morpholin-4-yl)phenyl]amino}pyrimidin-4-yl)benzonitrile]: the IC50 at IKKε (setting [1]) was under 0.005 µM; at TBK1 (setting [2]) it was under 0.01 µM.

In the case of `N#Cc1cc(-c2ccnc(Nc3ccc(N4CCOCC4)cc3)n2)ccc1N` [Example 217, 2-Amino-5-(2-{[4-(morpholin-4-yl)phenyl]amino}pyrimidin-4-yl)benzonitrile], the IC50 at IKKε (setting [1]) was 0.005 to 0.05 µM; at TBK1 (setting [2]) it was under 0.01 µM.

Turning to `COc1cc(Nc2nccc(-c3ccc(OC(C)C)c(C#N)c3)n2)cc(OC)c1` [Example 272, 5-{2-[(3,5-Dimethoxyphenyl)amino]pyrimidin-4-yl}-2-(propan-2-yloxy)benzonitrile], the 50% inhibitory concentration (IC50) was in the range of 0.005 to 0.05 µM at IKKε (setting [1]) and 0.01 to 0.1 µM on TBK1 (setting [2]).

Turning to `COc1cc(Nc2nccc(-c3ccc(OC4CCOCC4)c(C#N)c3)n2)ccc1S(=O)(=O)N1CCCC1` [compound 394, 5-(2-{[3-methoxy-4-(pyrrolidin-1-ylsulfonyl)phenyl]amino}pyrimidin-4-yl)-2-(tetrahydro-2H-pyran-4-yloxy)benzonitrile], the concentration for half-maximal inhibition (IC50) at IKKε (setting [1]) was under 0.005 µM; on TBK1 (setting [2]), under 0.01 µM.

On to `COCCNCc1ccc(Nc2nccc(-c3ccc(NC(=O)C4CC4)c(C#N)c3)n2)cc1` [compound 557], for which the IC50 at IKKε (setting [1]) lay in the range of 0.005 to 0.05 µM; on TBK1 (setting [2]), 0.01 to 0.1 µM.

`Cc1ccc(-c2ccnc(Nc3ccc(N4CCOCC4)cc3)n2)cc1C#N` [Example 269, 2-Methyl-5-(2-{[4-(morpholin-4-yl)phenyl]amino}pyrimidin-4-yl)benzonitrile]: the results for the IC50 on IKKε (setting [1]) and on TBK1 (setting [2]) were 0.005 to 0.05 µM and under 0.01 µM, respectively.

In the case of `Cc1ccc(Nc2nccc(-c3ccc(OC4CCOCC4)c(C#N)c3)n2)cc1N1CCOCC1` [compound 590, 5-(2-{[4-Methyl-3-(morpholin-4-yl)phenyl]amino}pyrimidin-4-yl)-2-(tetrahydro-2H-pyran-4-yloxy)benzonitrile], the IC50 on IKKε (Table 3, read-out: IKKε IC50) is 0.0003 µM; on IKKε (setting [1]) it was under 0.005 µM; at TBK1 (Table 3, read-out: TBK1 IC50), 0.0012 µM; at TBK1 (setting [2]), under 0.01 µM.

Regarding `COCCOC1CN(c2cc(Nc3nccc(-c4ccc(OC5CCOCC5)c(C#N)c4)n3)ccc2C)C1` [compound 596, 5-[2-({3-[3-(2-Methoxyethoxy)azetidin-1-yl]-4-methylphenyl}amino)pyrimidin-4-yl]-2-(tetrahydro-2H-pyran-4-yloxy)benzonitrile], the IC50 on IKKε (Table 3, read-out: IKKε IC50) was 0.0007 µM; on IKKε (setting [1]), under 0.005 µM; on TBK1 (Table 3, read-out: TBK1 IC50), 0.001 µM; on TBK1 (setting [2]), under 0.01 µM.

Consider `COc1ccc(-c2ccnc(Nc3ccc(N4CCNC(=O)C4)cc3)n2)cc1C#N` [Example 71, 2-Methoxy-5-(2-{[4-(3-oxopiperazin-1-yl)phenyl]amino}pyrimidin-4-yl)benzonitrile], for which the results for the half-maximal inhibitory concentration (IC50) at IKKε (setting [1]) and on TBK1 (setting [2]) were 0.005 to 0.05 µM and 0.01 to 0.1 µM, respectively.

Regarding `CNS(=O)(=O)Cc1ccc(Nc2nccc(-c3ccc(OCC4CC4)c(C#N)c3)n2)cc1` [compound 644, 1-[4-({4-[3-Cyano-4-(cyclopropylmethoxy)phenyl]pyrimidin-2-yl}amino)phenyl]-N-methylmethane-sulfonamide], the IC50 at IKKε (setting [1]) is under 0.005 µM; on TBK1 (setting [2]) it was under 0.01 µM.

With `COc1cc(-c2ccnc(Nc3ccc(CN4CCN(CCO)CC4)cc3)n2)cc(C#N)c1OC1CCOCC1` [compound 443], the IC50 on IKKε (setting [1]) is 0.005 to 0.05 µM; at TBK1 (setting [2]), 0.01 to 0.1 µM.

Turning to `COc1cc(Nc2nccc(-c3cccc(C#N)c3)n2)cc(OC)c1` [compound 347, 3-{2-[(3,5-Dimethoxyphenyl)amino]pyrimidin-4-yl}benzonitrile], the 50% inhibitory concentration (IC50) at IKKε (setting [1]) was 0.05 to 0.5 µM; on TBK1 (setting [2]), 0.1 to 0.5 µM.

For the compound `COc1ccc(Nc2nccc(-c3ccc(O)c(C#N)c3)n2)cc1OC` [Example 118], the 50% inhibitory concentration (IC50) at IKKε (setting [1]) was under 0.005 µM; at TBK1 (setting [2]), under 0.01 µM.

For `CC(C)(C)OC(=O)NCc1ccc(Nc2nccc(-c3ccc(OC4CCOCC4)c(C#N)c3)n2)cc1` [compound 491, tert-butyl [4-({4-[3-cyano-4-(tetrahydro-2H-pyran-4-yloxy)phenyl]pyrimidin-2-yl}amino)benzyl] carbamate], the IC50 on IKKε (setting [1]) was 0.005 to 0.05 µM; on TBK1 (setting [2]), under 0.01 µM.

Consider `N#Cc1cc(-c2ccnc(Nc3ccc(N4CCOCC4)cc3)n2)ccc1NN1CCOCC1` [Example 285, 2-(morpholin-4-ylamino)-5-(2-{[4-(morpholin-4-yl)phenyl]amino}pyrimidin-4-yl)benzonitrile], for which the IC50 on IKKε (setting [1]) was 0.005 to 0.05 µM; at TBK1 (setting [2]), under 0.01 µM.
